Consider six compounds from patent US20260015350A1, “AZAQUINAZOLINE PAN-KRAS INHIBITORS” (Mirati Therapeutics, Inc., priority 2022, published 2026).

A value given as a limit tells only on which side of the number the result lay.

One assay concerns the target T1, KRas^G12D (Homo sapiens, UniProt P01116, G12D).
T1 construct: Biotinylated KRas (corresponding to amino acids 1-169, produced at Accelegan Inc.); biotin (biotinylated); purchased Accelegan Inc
The experiment in a line: KRas binding assay (TR-FRET tracer displacement), KRas G12D.

Another assay concerns the target T2, KRas^G12S (Homo sapiens, UniProt P01116, G12S).
T2 construct: Biotinylated KRas (corresponding to amino acids 1-169, produced at Accelegan Inc.); biotin (biotinylated); purchased Accelegan Inc
The experiment in a line: KRas binding assay (TR-FRET tracer displacement), KRas G12S. To be noted: TR-FRET tracer displacement, KRas G12S. (In general: Time-resolved FRET reads energy transfer from a long-lived donor to a nearby acceptor.)

Assay [1] concerns KRas-mediated phosphorylation of ERK in H727 cells. The experiment in a line: Inhibition of KRas-mediated phosphorylation of ERK (Cisbio HTRF pERK), H727 cells. In kind it is cell-based. To be noted: Homo sapiens; for IC50: NCI-H727, H727 cells, HTRF pERK; for inhibition at 0.1 µM: NCI-H727, 3 h, single point, 100 nM compound, 3 hrs, H727 cells. A digest of the protocol:
(§1)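 Following a 3-hr exposure of cells to serially diluted compound (from 10 uM, 3-fold, 10 doses), cold lysis for 40 mins preceded a 2-hr room-temperature HTRF immunoassay for phosphorylated ERK.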

The next assay deals with T3, KRas^G12A (Homo sapiens, UniProt P01116, G12A).
T3 construct: Biotinylated KRas (corresponding to amino acids 1-169, produced at Accelegan Inc.); biotin (biotinylated); purchased Accelegan Inc
Briefly: KRas binding assay (TR-FRET tracer displacement), KRas G12A. To be noted: TR-FRET tracer displacement, KRas G12A.

The target in the next assay is T4, KRas^WT (Homo sapiens, UniProt P01116).
T4 construct: Biotinylated KRas (corresponding to amino acids 1-169, produced at Accelegan Inc.); biotin (biotinylated); purchased Accelegan Inc
The experiment in a line: KRas binding assay (TR-FRET tracer displacement), KRas WT. To be noted: TR-FRET tracer displacement, KRas WT.

Assay [2] relates to KRas-mediated phosphorylation of ERK in AsPC-1 cells. Briefly: Inhibition of KRas-mediated phosphorylation of ERK (Cisbio HTRF pERK), AsPC-1 cells. In kind it is cell-based. To be noted: Homo sapiens; for IC50: ASPC1, AsPC-1 cells, HTRF pERK; for inhibition at 0.1 µM: ASPC1, 3 h, single point, 100 nM compound, 3 hrs, AsPC-1 cells. Put shortly:
as §1

The target of another assay is T5, KRas^G12C (Homo sapiens, UniProt P01116, G12C).
T5 construct: Biotinylated KRas (corresponding to amino acids 1-169, produced at Accelegan Inc.); biotin (biotinylated); purchased Accelegan Inc
Briefly: KRas binding assay (TR-FRET tracer displacement), KRas G12C. To be noted: TR-FRET tracer displacement, KRas G12C.

The subject of assay [3] is KRas-mediated phosphorylation of ERK in MKN1 cells. Briefly: Inhibition of KRas-mediated phosphorylation of ERK (Cisbio HTRF pERK), MKN1 cells. In kind it is cell-based. To be noted: Homo sapiens, MKN-1. A digest of the protocol:
(§2)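 Overnight culture at 37° C./5% CO2 in RPMI containing 10% FBS, seeded 6,000 cells per well, preceded the assay. A covered 4-hour incubation at room temperature followed, then HTRF signal for phosphorylated ERK was measured.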

In assay [4] the test system is KRas-mediated phosphorylation of ERK in PSN1 cells. Briefly: Inhibition of KRas-mediated phosphorylation of ERK (Cisbio HTRF pERK), PSN1 cells. To be noted: Homo sapiens. In kind it is cell-based. Put shortly:
as §2

A further assay deals with T6, KRas^G12V (Homo sapiens, UniProt P01116, G12V).
T6 construct: Biotinylated KRas (corresponding to amino acids 1-169, produced at Accelegan Inc.); biotin (biotinylated); purchased Accelegan Inc
Briefly: KRas binding assay (TR-FRET tracer displacement), KRas G12V.

In a further assay the target is T7, KRas^Q61H (Homo sapiens, UniProt P01116, Q61H).
T7 construct: Biotinylated KRas (corresponding to amino acids 1-169, produced at Accelegan Inc.); biotin (biotinylated); purchased Accelegan Inc
The experiment in a line: KRas binding assay (TR-FRET tracer displacement), KRas Q61H. To be noted: TR-FRET tracer displacement, KRas Q61H.

Another assay concerns the target T8, KRas^G12R (Homo sapiens, UniProt P01116, G12R).
T8 construct: Biotinylated KRas (corresponding to amino acids 1-169, produced at Accelegan Inc.); biotin (biotinylated); purchased Accelegan Inc
The experiment in a line: KRas binding assay (TR-FRET tracer displacement), KRas G12R.

The target in the next assay is T9, KRas^G13D (Homo sapiens, UniProt P01116, G13D).
T9 construct: Biotinylated KRas (corresponding to amino acids 1-169, produced at Accelegan Inc.); biotin (biotinylated); purchased Accelegan Inc
Briefly: KRas binding assay (TR-FRET tracer displacement), KRas G13D. To be noted: TR-FRET tracer displacement, KRas G13D.

The subject of assay [5] is KRas-mediated phosphorylation of ERK in HCT116 cells. The experiment in a line: Inhibition of KRas-mediated phosphorylation of ERK (Cisbio HTRF pERK), HCT116 cells. In kind it is cell-based. To be noted: Homo sapiens; for inhibition at 0.1 µM: HCT-116, 3 h, single point, 100 nM compound, 3 hrs. A digest of the protocol: (§3)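 Phosphorylated ERK was quantified by HTRF using d2-conjugate and Cryptate antibodies added to lysates for 2 hrs at room temperature.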

For assay [6], the system named is KRas-mediated phosphorylation of ERK in H358 cells. Briefly: Inhibition of KRas-mediated phosphorylation of ERK (Cisbio HTRF pERK), H358 cells. In kind it is cell-based. To be noted: Homo sapiens; for inhibition at 0.1 µM: NCI-H358, 3 h, single point, 100 nM compound, 3 hrs. A digest of the protocol:
as §1

Assay [7] concerns KRas-mediated phosphorylation of ERK in H460 cells. The experiment in a line: Inhibition of KRas-mediated phosphorylation of ERK (Cisbio HTRF pERK), H460 cells. In kind it is cell-based. To be noted: Homo sapiens; for inhibition at 0.1 µM: NCI-H460, 3 h, single point, 100 nM compound, 3 hrs. Put shortly:
as §1

Assay [8] deals with KRas-mediated phosphorylation of ERK in A549 cells. Briefly: Inhibition of KRas-mediated phosphorylation of ERK (Cisbio HTRF pERK), A549 cells. In kind it is cell-based. To be noted: Homo sapiens; for inhibition at 0.1 µM: A549, 3 h, single point, 100 nM compound, 3 hrs. Put shortly: as §3

T3 sequence (P01116 1-169 isoform P01116-2 G12A): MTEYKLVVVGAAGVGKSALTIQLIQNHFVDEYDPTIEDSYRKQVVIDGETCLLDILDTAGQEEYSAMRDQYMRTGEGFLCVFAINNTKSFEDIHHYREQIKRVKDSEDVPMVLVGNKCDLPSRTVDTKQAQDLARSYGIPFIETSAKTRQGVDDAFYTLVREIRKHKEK
T6 sequence (P01116 1-169 isoform P01116-2 G12V): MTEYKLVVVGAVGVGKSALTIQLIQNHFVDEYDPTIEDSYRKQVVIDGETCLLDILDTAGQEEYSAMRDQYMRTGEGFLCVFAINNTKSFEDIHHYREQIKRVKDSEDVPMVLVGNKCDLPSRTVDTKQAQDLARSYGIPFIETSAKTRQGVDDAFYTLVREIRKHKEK
T8 sequence (P01116 1-169 isoform P01116-2 G12R): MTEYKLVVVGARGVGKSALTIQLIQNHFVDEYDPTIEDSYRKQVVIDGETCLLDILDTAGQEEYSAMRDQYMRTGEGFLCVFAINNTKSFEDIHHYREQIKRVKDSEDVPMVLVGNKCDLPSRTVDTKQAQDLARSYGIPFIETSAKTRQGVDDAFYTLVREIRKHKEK
T7 sequence (P01116 1-169 isoform P01116-2 Q61H): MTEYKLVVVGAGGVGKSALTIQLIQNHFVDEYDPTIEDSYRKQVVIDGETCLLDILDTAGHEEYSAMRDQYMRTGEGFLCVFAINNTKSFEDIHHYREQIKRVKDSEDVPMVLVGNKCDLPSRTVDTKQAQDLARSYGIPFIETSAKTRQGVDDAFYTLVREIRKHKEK
T5 sequence (P01116 1-169 isoform P01116-2 G12C): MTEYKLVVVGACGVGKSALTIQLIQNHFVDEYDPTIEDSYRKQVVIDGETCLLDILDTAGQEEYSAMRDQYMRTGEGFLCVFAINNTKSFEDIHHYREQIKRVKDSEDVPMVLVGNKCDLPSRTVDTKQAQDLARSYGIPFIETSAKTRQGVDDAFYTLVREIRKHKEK
T1 sequence (P01116 1-169 isoform P01116-2 G12D): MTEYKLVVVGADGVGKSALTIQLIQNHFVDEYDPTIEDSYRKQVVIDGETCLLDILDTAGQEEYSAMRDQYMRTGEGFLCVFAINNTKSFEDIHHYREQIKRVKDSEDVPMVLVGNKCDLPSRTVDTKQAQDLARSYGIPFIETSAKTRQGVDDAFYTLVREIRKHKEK
T2 sequence (P01116 1-169 isoform P01116-2 G12S): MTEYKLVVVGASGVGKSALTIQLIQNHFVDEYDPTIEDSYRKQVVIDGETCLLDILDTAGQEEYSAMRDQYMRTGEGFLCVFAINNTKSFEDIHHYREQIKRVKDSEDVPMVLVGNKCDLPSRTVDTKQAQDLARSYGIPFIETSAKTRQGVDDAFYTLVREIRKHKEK
T9 sequence (P01116 1-169 isoform P01116-2 G13D): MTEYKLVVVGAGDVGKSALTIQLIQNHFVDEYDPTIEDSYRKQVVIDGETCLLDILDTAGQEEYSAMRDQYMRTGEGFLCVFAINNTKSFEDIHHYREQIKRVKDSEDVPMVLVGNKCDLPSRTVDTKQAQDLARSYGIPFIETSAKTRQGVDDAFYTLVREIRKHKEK
T4 sequence (P01116 1-169 isoform P01116-2): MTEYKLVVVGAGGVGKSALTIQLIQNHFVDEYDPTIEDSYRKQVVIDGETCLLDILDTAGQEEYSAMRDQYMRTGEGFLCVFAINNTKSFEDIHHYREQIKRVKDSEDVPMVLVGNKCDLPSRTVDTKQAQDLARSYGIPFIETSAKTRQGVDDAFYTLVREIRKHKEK

In general, IC50 refers to the concentration needed to halve the response being measured. Higher therefore signals weaker potency. Turning to `Cc1cc2[nH]ncc2c(-c2ncc3c(N4CCCC5(C4)NC(=O)NC5=O)nc(OCC45CCCN4CCC5)nc3c2F)c1C` (stereo not shown) [Example 728, 7-(7-(5,6-dimethyl-1H-indazol-4-yl)-8-fluoro-2-((hexahydro-1H-pyrrolizin-7a-yl)methoxy)pyrido[4,3-d]pyrimidin-4-yl)-1,3,7-triazaspiro[4.5]decane-2,4-dione], the IC50 on KRas^G12D was found to be 60 nM; at KRas^G12S it was 31 nM; in [1], 2510 nM; at KRas^G12A, 35 nM; on KRas^WT it was 34 nM; in [2] it was 2510 nM. Moreover, the IC50 on KRas^G12C is 31 nM; in [3], above 10000 nM; in assay [4] it was above 10000 nM; at KRas^G12V, 23 nM; on KRas^Q61H, 40 nM; at KRas^G12R, 34 nM. The same compound returned an IC50 at KRas^G13D of 37 nM.
The inhibition is the drop in the measured response relative to a control, in per cent. As to `Oc1cc(-c2ncc3c(N4C[C@@H]5C[C@H](C4)[C@H](O)C5)nc(OC[C@@]45CCCN4C[C@H](F)C5)nc3c2F)c2ccc(Cl)cc2c1` [Example 763, (1R,5R,6R)-3-(7-(6-chloro-3-hydroxynaphthalen-1-yl)-8-fluoro-2-(((2R,7aS)-2-fluorohexahydro-1H-pyrrolizin-7a-yl)methoxy)pyrido[4,3-d]pyrimidin-4-yl)-3-azabicyclo[3.2.1]octan-6-ol], the IC50 worked out at 70 nM at KRas^G12D; 20 nM on KRas^G12S; 498 nM in [1]; 25 nM on KRas^G12A; 36 nM at KRas^WT; 1250 nM in [2]. The IC50 at KRas^G12C amounted to 33 nM; on KRas^G12V, 23 nM; on KRas^Q61H, 45 nM; at KRas^G12R it was 18 nM; at KRas^G13D it was 36 nM. Besides, the inhibition at 0.1 µM was 5% in [5], -25% in [6], 13% in [7] and -11% in assay [8].
For `Oc1cc(-c2ncc3c(N4C[C@@H]5C[C@H](C4)[C@H](O)C5)nc(OC[C@@]45CCCN4C[C@H](F)C5)nc3c2F)c2cccc(F)c2c1` [Example 748, (1R,5R,6R)-3-(8-fluoro-7-(5-fluoro-3-hydroxynaphthalen-1-yl)-2-(((2R,7aS)-2-fluorohexahydro-1H-pyrrolizin-7a-yl)methoxy)pyrido[4,3-d]pyrimidin-4-yl)-3-azabicyclo[3.2.1]octan-6-ol], the IC50 on KRas^G12D is 32 nM; on KRas^G12S, 12 nM; in assay [1], 275 nM; on KRas^G12A, 16 nM; on KRas^WT it was 20 nM; in assay [2] it was 788 nM. Besides, the 50% inhibitory concentration (IC50) at KRas^G12C worked out at 18 nM; at KRas^G12V, 12 nM; on KRas^Q61H it was 26 nM; on KRas^G12R it was 11 nM; on KRas^G13D, 21 nM. Besides, the inhibition at 0.1 µM in assay [5] was 21%; in assay [6], 5%; in [7], -6%; in assay [8], -7%.
In the case of `O=C1NC(=O)[C@]2(CCCN(c3nc(OC[C@@]45CCCN4C[C@H](F)C5)nc4c(F)c(-c5c(C6CC6)c(Cl)cc6[nH]ncc56)ncc34)C2)N1` [Example 780, (5R)-7-(7-(6-chloro-5-cyclopropyl-1H-indazol-4-yl)-8-fluoro-2-(((2R,7aS)-2-fluorohexahydro-1H-pyrrolizin-7a-yl)methoxy)pyrido[4,3-d]pyrimidin-4-yl)-1,3,7-triazaspiro[4.5]decane-2,4-dione], the IC50 at KRas^G12D is below 2 nM; in [5] (HCT-116, HTRF pERK), 557 nM; at KRas^G12S, below 2 nM; in assay [1] it was 340 nM; on KRas^G12A, below 2 nM; in assay [6] (NCI-H358, HTRF pERK), 33 nM. For the same compound, the IC50 was below 2 nM at KRas^WT; 784 nM in [2]; 246 nM in [7] (NCI-H460, HTRF pERK); below 2 nM at KRas^G12C; below 2 nM at KRas^G12V; below 2 nM on KRas^Q61H. The values for the IC50 (on KRas^G12R; on KRas^G13D; in assay [8] (HTRF pERK)) were below 2 nM, below 2 nM and 412 nM, respectively. The inhibition at 0.1 µM in assay [5] was -2%; in assay [1], 30%; in [6] it was 42%; in assay [2], -12%; in [7] it was -8%; in assay [8], 21%.
Turning to `CN(C)C(=O)c1cc2n(n1)CCCN(c1nc(OCC34CCCN3CCC4)nc3c(F)c(-c4c(C5CC5)c(Cl)cc5[nH]ncc45)ncc13)C2` [Example 881, 5-(7-(6-chloro-5-cyclopropyl-1H-indazol-4-yl)-8-fluoro-2-((tetrahydro-1H-pyrrolizin-7a(5H)-yl)methoxy)pyrido[4,3-d]pyrimidin-4-yl)-N,N-dimethyl-5,6,7,8-tetrahydro-4H-pyrazolo[1,5-a][1,4]diazepine-2-carboxamide], the IC50 on KRas^G12D was 2 nM; on KRas^G12S, 7 nM; in [1], above 10000 nM; on KRas^G12A, 14 nM; at KRas^WT it was 22 nM; in [2], above 10000 nM. Further, the IC50 on KRas^G12C is 7 nM; in assay [3], above 10000 nM; in assay [4], above 10000 nM; at KRas^G12V, 4 nM; at KRas^Q61H, 22 nM; on KRas^G12R, 11 nM. In addition, the IC50 on KRas^G13D was 25 nM.
`Oc1cc(-c2ncc3c(N4C[C@@H]5C[C@H](C4)[C@H](O)C5)nc(OC[C@@]45CCCN4C[C@H](F)C5)nc3c2F)c2ccccc2c1F` [Example 750, (1R,5R,6R)-3-(8-fluoro-7-(4-fluoro-3-hydroxynaphthalen-1-yl)-2-(((2R,7aS)-2-fluorotetrahydro-1H-pyrrolizin-7a(5H)-yl)methoxy)pyrido[4,3-d]pyrimidin-4-yl)-3-azabicyclo[3.2.1]octan-6-ol]: the IC50 on KRas^G12D stood at 98 nM; on KRas^G12S it was 43 nM; in [1] it was 1680 nM; on KRas^G12A, 63 nM; at KRas^WT, 84 nM; in assay [2], 1900 nM. The IC50 on KRas^G12C came to 74 nM; at KRas^G12V, 29 nM; at KRas^Q61H, 184 nM; on KRas^G12R it was 42 nM; at KRas^G13D, 74 nM. In addition, the inhibition at 0.1 µM was 2% in assay [5]; 1% in [1]; 15% in assay [6]; -1% in [2]; 16% in assay [7]; -1% in [8].
